In the OPERA property sets (Mansouri et al. 2018):
In brackets after ≈: the same amount, converted by molar mass.

conditions: not given

Row | Structure (SMILES) | logP | solubility
1 | CCc1ccc(C=[N+]([O-])C(C)(C)C)cc1 | 2.19 | 
2 | CCCCCCCC | 5.18 | 
3 | CS(=O)CCCOc1ccc([N+](=O)[O-])cc1 (configuration not stated) | 0.93 | 
4 | O=C1c2ccccc2C(=O)N1SC1CCCCC1 | 3.66 | 
5 | NS(=O)(=O)c1nc2ccc(OCCO)cc2s1 | 0.59 | 
6 | CCC1(C2=CCCCCC2)C(=O)NC(=O)N(C)C1=O (configuration not stated) | 2.82 | 
7 | CC(CCC(=O)O)C1CCC2C3C(O)CC4CC(O)CCC4(C)C3CCC12C (configuration not stated) | 3 | 
8 | CC(C)c1ccc(NC(=O)CN(CC(=O)O)CC(=O)O)cc1Br | -0.08 | 
9 | Cc1ccccc1OCCN(C)C | 2.23 | 
10 | Cc1ccc2oc(N(N)CCC#N)nc2c1 | 1.48 | 
11 | CC(C(=O)O)c1ccc2oc(-c3ccc(Cl)cc3)nc2c1 (configuration not stated) | 3.23 | 
12 | CC(C)COCC(C)C | 2.78 | 
13 | Cc1ccc(C=C(C#N)C#N)o1 | 2.03 | 
14 | CCC(=O)OC | 0.84 | 
15 | O=C(NCCN1CCC(n2c(=O)[nH]c3cc(Cl)ccc32)CC1)c1ccc(F)cc1 | 4.63 | 
16 | O=CC=Cc1ccc([N+](=O)[O-])o1 | 0.96 | 
17 | NC(=S)Nc1cccc2ccccc12 | 1.65 | 
18 | COc1cc(OC)ncn1 | 0.96 | 
19 | CCCN(C)N=O | 0.56 | 
20 | CCNC(=O)Nc1ncc([N+](=O)[O-])s1 |  | 1.39 mM (≈ 0.3 mg/mL)
21 | CNC(=O)NCCn1nc(-c2ccccc2)ccc1=O | 0.39 | 
22 | CCCCC(C)O (configuration not stated) | 1.76 | 
23 | Cc1cccc([N+](=O)[O-])c1C | 2.83 | 
24 | CCCOc1ccc([N+](=O)[O-])cc1NC(C)=O | 1.6 | 
25 | CC1(C2=CCCCC2)C(=O)NC(=O)NC1=O | 1.6 | 

Row | Structure (SMILES) | logP | solubility
26 | CN1CCCC1=O | -0.38 | 
27 | Cn1cnc2c(N)ncnc21 | -0.03 | 
28 | COC(=O)c1cc2ccccc2o1 | 2.53 | 
29 | O=C1NCCC2CNC(=O)C12 (configuration not stated) | -1.95 | 
30 | c1ccc2sc(SN(C3CCCCC3)C3CCCCC3)nc2c1 | 4.8 | 0.000163 mM (≈ 5.64e-05 mg/mL)
31 | ClCc1ccc(Cl)cc1 | 3.18 | 
32 | Brc1cc(Br)c(Br)c(-c2c(Br)c(Br)cc(Br)c2Br)c1Br | 5.5 | 
33 | Cc1cnc2c(C(=O)O)c(Cl)ccc2c1 | 0.78 | 
34 | Clc1cc(Cl)c(-c2cc(Cl)c(Cl)cc2Cl)cc1Cl | 6.34 | 
35 | O=P(O)(O)CCCl | -0.22 | 
36 | CS/C(C)=N/O | 1.12 | 
37 | C=CCOc1ccccc1OCC(CNC(C)C)OC(=O)CC (configuration not stated) | 3.76 | 
38 | COc1ccc(C=[N+]([O-])C(C)(C)C)cc1 | 1.21 | 
39 | CCOC(=O)C(C)OC(=O)c1cc(Oc2ccc(C(F)(F)F)cc2Cl)ccc1[N+](=O)[O-] (configuration not stated) |  | 0.000217 mM (≈ 0.0001 mg/mL)
40 | ClCC1(CCl)C2C(Cl)C(Cl)(Cl)C1(C(Cl)Cl)CC2(Cl)Cl (configuration not stated) | 6.26 | 
41 | CCCCC1CO1 (configuration not stated) | 1.95 | 
42 | Cc1ccc(S(=O)(=O)CC(=O)c2ccc(Cl)cc2)cc1 | 3.43 | 
43 | CCCCCCC(C)=O | 2.37 | 
44 | CC(C)CCOC(=O)c1cc(=O)[nH]c(=O)[nH]1 | 1.48 | 
45 | CCCCc1ccc(N)cc1 | 3.05 | 
46 | CCCN(CCC)C1COc2c(O)cccc2C1 (configuration not stated) | 3.3 | 
47 | CC(=O)OC1C=CC2C3Cc4ccc(O)c5c4C2(CCN3C)C1O5 (configuration not stated) | 1.55 | 
48 | N#Cc1cc(-c2ccncc2)cnc1NCCCO | 1.42 | 
49 | N#CCCCC#N | -0.72 | 
50 | O=c1c(Cl)c(Cl)cnn1-c1ccccc1 | 2.09 | 

Row | Structure (SMILES) | logP | solubility
51 | CCOP(=S)(OCC)Oc1ccc(N)cc1 |  | 1.49 mM (≈ 0.39 mg/mL)
52 | CSc1nc(C(Cl)(Cl)Cl)nc(C(Cl)(Cl)Cl)n1 | 4.42 | 
53 | COC(=O)C(C)=CC1C(C(=O)OC)C1(C)C (configuration not stated) | 2.67 | 
54 | CN1C(=O)CCC1(O)c1cccnc1 (configuration not stated) | -0.57 | 
55 | CC1CCCCN1CCCOC(=O)c1ccc(Cl)c(Cl)c1 (configuration not stated) |  | 0.0606 mM (≈ 0.02 mg/mL)
56 | CCOC(C(=O)OCc1ccccc1)C(C)C (configuration not stated) | 3.29 | 
57 | C[Si](C)(C)O[Si](C)(C)O[Si](C)(C)C | 6.6 | 
58 | CN(C)c1ncc(-c2ccncc2)cc1C#N | 2.13 | 
59 | O=C(O)c1ccc(-c2ccccc2)cc1 | 3.75 | 
60 | CC(C)/N=c1/cc2n(-c3ccc(Cl)cc3)c3ccccc3nc-2cc1Nc1ccc(Cl)cc1 | 7.66 | 
61 | O=C(O)CNCP(=O)(O)O | -3.4 | 
62 | Clc1ccc2cccc(Cl)c2c1 | 4.56 | 
63 | CCCCCCOc1ccc(N)cc1 | 3.64 | 
64 | c1ccc2cc3c(ccc4ccccc43)cc2c1 | 5.76 | 
65 | CCCCCCCCCCOC(=O)c1ccccc1C(=O)OCCCCCCCCCC | 9.05 | 
66 | C=C(Br)CC1(C(C)CC)C(=O)NC(=O)NC1=O (configuration not stated) | 2.2 | 
67 | COC(=O)CCCCC(=O)OC |  | 34.4 mM (≈ 6 mg/mL)
68 | c1ccc2cc3c4ccccc4c4ccccc4c3cc2c1 | 6.41 | 
69 | CC(C)COC(=O)c1cc(=O)[nH]c(=O)[nH]1 | 1.01 | 
70 | CCC(C(=O)Oc1ccccc1)C(C)C (configuration not stated) | 4.2 | 
71 | CC(=O)OCN1C(=O)c2cccc3cccc(c23)C1=O | 2.34 | 
72 | O=[N+]([O-])c1cncn1CCN1CCOCC1 | 0.07 | 
73 | CC(=O)N[C@@H](C)C(=O)N[C@@H](C)C(N)=O | -2 | 
74 | Clc1c(Cl)c(Cl)c2c(Cl)c(Cl)c(Cl)c(Cl)c2c1Cl | 8.5 | 1.98e-07 mM (≈ 8e-08 mg/mL)

same assay, conditions: 20 °C

Row | Structure (SMILES) | solubility
75 | O=c1c(Cl)c(Cl)cnn1-c1ccccc1 | 0.415 mM (≈ 0.1 mg/mL)
76 | CCSCC | 34.7 mM (≈ 3.13 mg/mL)
77 | CCc1ccc(C)nc1 | 99 mM (≈ 12 mg/mL)
78 | ClCCOCCCl | 120 mM (≈ 17.2 mg/mL)
79 | COCc1cnc(C2=NC(C)(C(C)C)C(=O)N2)c(C(=O)O)c1 (configuration not stated) | 14.5 mM (≈ 4.41 mg/mL)

same assay, conditions: 22 °C

Row | Structure (SMILES) | solubility
80 | CN(C)C(=O)Nc1cccc(C(F)(F)F)c1 | 0.366 mM (≈ 0.085 mg/mL)

same assay, conditions: 23.0 °C

Row | Structure (SMILES) | log10 OH rate constant (cm³/molecule/s)
81 | O=C1C=CC(=O)O1 | -11.8

same assay, conditions: 24 °C

Row | Structure (SMILES) | solubility
82 | Clc1cc(Cl)c(-c2cc(Cl)c(Cl)cc2Cl)cc1Cl | 2.63e-06 mM (≈ 9.5e-07 mg/mL)

same assay, conditions: 25 °C

Row | Structure (SMILES) | solubility
83 | CCOc1nc(F)cc2nc(S(=O)(=O)Nc3c(Cl)cccc3C(=O)OC)nn12 | 0.0372 mM (≈ 0.016 mg/mL)
84 | CCC(=O)OC | 708 mM (≈ 62.4 mg/mL)
85 | CSc1ccccc1 | 4.07 mM (≈ 0.506 mg/mL)
86 | Clc1ccc(/N=N/c2ccccc2)cc1 | 0.00198 mM (≈ 0.00043 mg/mL)
87 | CC(C)(C)Br | 4.38 mM (≈ 0.6 mg/mL)
88 | CC(CCc1ccccc1)NCC(O)c1ccc(O)c(C(N)=O)c1 (configuration not stated) | 0.356 mM (≈ 0.117 mg/mL)
89 | OCC(Br)CBr (configuration not stated) | 239 mM (≈ 52 mg/mL)
90 | O=C(O)CBr | 12600 mM (≈ 1750 mg/mL)
91 | CCN(CC)c1ccccc1 | 0.938 mM (≈ 0.14 mg/mL)
92 | CC(C)C(O)C(C)(C)CO (configuration not stated) | 130 mM (≈ 19 mg/mL)
93 | COCCc1ccc(OCC(O)CNC(C)C)cc1 (configuration not stated) | 63.2 mM (≈ 16.9 mg/mL)
94 | CCCOC(=O)COc1ccc(Cl)cc1Cl | 0.0562 mM (≈ 0.0148 mg/mL)
95 | CCOC(=O)N(C)N=O | 280 mM (≈ 37 mg/mL)
96 | COc1c(O)c(Cl)c(Cl)c(Cl)c1Cl | 0.016 mM (≈ 0.0042 mg/mL)
97 | FCCl | 151 mM (≈ 10.4 mg/mL)
98 | COC(CN(C)C(=O)Nc1nnc(C(C)(C)C)s1)OC | 13.6 mM (≈ 4.1 mg/mL)
99 | C[Si](C)(C)O[Si](C)(C)O[Si](C)(C)C | 0.000144 mM (≈ 3.4e-05 mg/mL)
100 | CCCCC(=O)O[C@]1(C(=O)CO)[C@@H](C)C[C@H]2[C@@H]3CCC4=CC(=O)C=C[C@]4(C)[C@@]3(F)[C@@H](O)C[C@@]21C | 0.0195 mM (≈ 0.00929 mg/mL)

same assay, conditions: 25.0 °C

Row | Structure (SMILES) | log10 OH rate constant (cm³/molecule/s)
101 | CCNC(=O)OC | -11
102 | C1CC2CCCC2C1 (configuration not stated) | -11
103 | CCCCOCC=O | -10.7
104 | Clc1c(Cl)c(Cl)c(Cl)c(Cl)c1Cl | -13.6
105 | C/C(C=O)=C\C=C\C=O | -9.93
106 | CC(C)Br | -12.1
107 | CC(Cl)C(C)Cl (configuration not stated) | -12
108 | CCOC(F)(F)C(F)F | -12.6
109 | CCOCCOCC | -10.2
110 | FC(F)=C(F)C(F)(F)F | -11.7
111 | CCCc1c(F)c(F)c(F)c(F)c1F | -11.5
112 | COC(=O)CCCCC(=O)OC | -11.1
113 | C=CCOC(F)(F)C(F)F | -10.7
114 | CCCCOCOCCCC | -10.5

same assay, conditions: 30 °C

Row | Structure (SMILES) | solubility
115 | COc1ccccc1[N+](=O)[O-] | 11 mM (≈ 1.69 mg/mL)
